# Data: ChEMBL document CHEMBL1147144, “Novel styrylpyridines as probes for SPECT imaging of amyloid plaques” (J Med Chem, 2007)
# Test system: Lung
# Assay: Biodistribution in ICR mouse lung at 5 to 10 uCi, iv after 2 mins
# Type: ADME, organism-based
# Conditions: in vivo
row,Drug uptake [% ID/g],Compound
1,9.41,CN(C)c1ccc(/C=C/c2cnc(OCCO)c([125I])c2)cc1

# Test system: Thyroid gland
# Assay: Biodistribution in ICR mouse thyroid at 5 to 10 uCi, iv after 1 hr
# Type: ADME, organism-based
# Conditions: in vivo
row,Drug uptake [% ID/g],Compound
1,59.1,CN(C)c1ccc(/C=C/c2cnc(OCCO)c([125I])c2)cc1

# Test system: Kidney
# Assay: Biodistribution in ICR mouse kidney at 5 to 10 uCi, iv after 2 hrs
# Type: ADME, organism-based
# Conditions: in vivo
row,Drug uptake [% ID/g],Compound
1,1.48,CN(C)c1ccc(/C=C/c2cnc(OCCO)c([125I])c2)cc1

# Test system: Heart
# Assay: Biodistribution in ICR mouse heart at 5 to 10 uCi, iv after 2 mins
# Type: ADME, organism-based
# Conditions: in vivo
row,Drug uptake [% ID/g],Compound
1,10.2,CN(C)c1ccc(/C=C/c2cnc(OCCO)c([125I])c2)cc1

# Test system: Heart
# Assay: Biodistribution in ICR mouse heart at 5 to 10 uCi, iv after 1 hr
# Type: ADME, organism-based
# Conditions: in vivo
row,Drug uptake [% ID/g],Compound
1,1.12,CN(C)c1ccc(/C=C/c2cnc(OCCO)c([125I])c2)cc1

# Test system: Thyroid gland
# Assay: Biodistribution in ICR mouse thyroid at 5 to 10 uCi, iv after 2 hrs
# Type: ADME, organism-based
# Conditions: in vivo
row,Drug uptake [% ID/g],Compound
1,24.8,CN(C)c1ccc(/C=C/c2cnc(OCCO)c([125I])c2)cc1

# Test system: Spleen
# Assay: Biodistribution in ICR mouse spleen at 5 to 10 uCi, iv after 2 hrs
# Type: ADME, organism-based
# Conditions: in vivo
row,Drug uptake [% ID/g],Compound
1,0.8,CN(C)c1ccc(/C=C/c2cnc(OCCO)c([125I])c2)cc1

# Test system: Spleen
# Assay: Biodistribution in ICR mouse spleen at 5 to 10 uCi, iv after 1 hr
# Type: ADME, organism-based
# Conditions: in vivo
row,Drug uptake [% ID/g],Compound
1,1.32,CN(C)c1ccc(/C=C/c2cnc(OCCO)c([125I])c2)cc1

# Test system: Liver
# Assay: Biodistribution in ICR mouse liver at 5 to 10 uCi, iv after 2 mins
# Type: ADME, organism-based
# Conditions: in vivo
row,Drug uptake [% ID/g],Compound
1,19.1,CN(C)c1ccc(/C=C/c2cnc(OCCO)c([125I])c2)cc1

# Test system: Brain
# Assay: Biodistribution in ICR mouse brain at 5 to 10 uCi, iv after 30 mins
# Type: ADME, organism-based
# Conditions: in vivo, 0.5 h
row,Drug uptake [% ID/g],Compound
1,3.56,CN(C)c1ccc(/C=C/c2cnc(OCCO)c([125I])c2)cc1

# Test system: Heart
# Assay: Biodistribution in ICR mouse heart at 5 to 10 uCi, iv after 2 hrs
# Type: ADME, organism-based
# Conditions: in vivo
row,Drug uptake [% ID/g],Compound
1,0.62,CN(C)c1ccc(/C=C/c2cnc(OCCO)c([125I])c2)cc1

# Test system: Blood
# Assay: Biodistribution in ICR mouse blood at 5 to 10 uCi, iv after 2 mins
# Type: ADME, organism-based
# Conditions: in vivo
row,Drug uptake [% ID/g],Compound
1,2.71,CN(C)c1ccc(/C=C/c2cnc(OCCO)c([125I])c2)cc1

# Test system: Liver
# Assay: Biodistribution in ICR mouse liver at 5 to 10 uCi, iv after 30 mins
# Type: ADME, organism-based
# Conditions: in vivo, 0.5 h
row,Drug uptake [% ID/g],Compound
1,12.4,CN(C)c1ccc(/C=C/c2cnc(OCCO)c([125I])c2)cc1

# Test system: Spleen
# Assay: Biodistribution in ICR mouse spleen at 5 to 10 uCi, iv after 30 mins
# Type: ADME, organism-based
# Conditions: in vivo, 0.5 h
row,Drug uptake [% ID/g],Compound
1,1.94,CN(C)c1ccc(/C=C/c2cnc(OCCO)c([125I])c2)cc1

# Test system: Lung
# Assay: Biodistribution in ICR mouse lung at 5 to 10 uCi, iv after 30 mins
# Type: ADME, organism-based
# Conditions: in vivo, 0.5 h
row,Drug uptake [% ID/g],Compound
1,3.02,CN(C)c1ccc(/C=C/c2cnc(OCCO)c([125I])c2)cc1

# Test system: Lung
# Assay: Biodistribution in ICR mouse lung at 5 to 10 uCi, iv after 2 hrs
# Type: ADME, organism-based
# Conditions: in vivo
row,Drug uptake [% ID/g],Compound
1,1,CN(C)c1ccc(/C=C/c2cnc(OCCO)c([125I])c2)cc1

# Test system: Heart
# Assay: Biodistribution in ICR mouse heart at 5 to 10 uCi, iv after 30 mins
# Type: ADME, organism-based
# Conditions: in vivo, 0.5 h
row,Drug uptake [% ID/g],Compound
1,1.93,CN(C)c1ccc(/C=C/c2cnc(OCCO)c([125I])c2)cc1

# Test system: Zone of skin
# Assay: Biodistribution in ICR mouse skin at 5 to 10 uCi, iv after 1 hr
# Type: ADME, organism-based
# Conditions: in vivo
row,Drug uptake [% ID/g],Compound
1,1.16,CN(C)c1ccc(/C=C/c2cnc(OCCO)c([125I])c2)cc1

# Test system: Muscle tissue
# Assay: Biodistribution in ICR mouse muscle at 5 to 10 uCi, iv after 1 hr
# Type: ADME, organism-based
# Conditions: in vivo
row,Drug uptake [% ID/g],Compound
1,0.55,CN(C)c1ccc(/C=C/c2cnc(OCCO)c([125I])c2)cc1

# Test system: Kidney
# Assay: Biodistribution in ICR mouse kidney at 5 to 10 uCi, iv after 2 mins
# Type: ADME, organism-based
# Conditions: in vivo
row,Drug uptake [% ID/g],Compound
1,14.3,CN(C)c1ccc(/C=C/c2cnc(OCCO)c([125I])c2)cc1

# Test system: not listed separately
# Assay: Partition coefficient, log P at pH 7.4
# Type: physicochemical
# Conditions: octanol/water
row,logD,Compound
1,2.2,CN(C)c1ccc(/C=C/c2cnc(OCCO)c([125I])c2)cc1

# Test system: Thyroid gland
# Assay: Biodistribution in ICR mouse thyroid at 5 to 10 uCi, iv after 30 mins
# Type: ADME, organism-based
# Conditions: in vivo, 0.5 h
row,Drug uptake [% ID/g],Compound
1,11.2,CN(C)c1ccc(/C=C/c2cnc(OCCO)c([125I])c2)cc1

# Test system: Brain
# Assay: Biodistribution in ICR mouse brain at 5 to 10 uCi, iv after 2 mins
# Type: ADME, organism-based
# Conditions: in vivo
row,Drug uptake [% ID/g],Compound
1,5.43,CN(C)c1ccc(/C=C/c2cnc(OCCO)c([125I])c2)cc1

# Test system: Zone of skin
# Assay: Biodistribution in ICR mouse skin at 5 to 10 uCi, iv after 2 hrs
# Type: ADME, organism-based
# Conditions: in vivo
row,Drug uptake [% ID/g],Compound
1,0.4,CN(C)c1ccc(/C=C/c2cnc(OCCO)c([125I])c2)cc1

# Test system: Muscle tissue
# Assay: Biodistribution in ICR mouse muscle at 5 to 10 uCi, iv after 2 hrs
# Type: ADME, organism-based
# Conditions: in vivo
row,Drug uptake [% ID/g],Compound
1,0.22,CN(C)c1ccc(/C=C/c2cnc(OCCO)c([125I])c2)cc1

# Test system: Brain
# Assay: Biodistribution in ICR mouse brain at 5 to 10 uCi, iv after 1 hr
# Type: ADME, organism-based
# Conditions: in vivo
row,Drug uptake [% ID/g],Compound
1,1.32,CN(C)c1ccc(/C=C/c2cnc(OCCO)c([125I])c2)cc1

# Test system: Thyroid gland
# Assay: Biodistribution in ICR mouse thyroid at 5 to 10 uCi, iv after 2 mins
# Type: ADME, organism-based
# Conditions: in vivo
row,Drug uptake [% ID/g],Compound
1,4.15,CN(C)c1ccc(/C=C/c2cnc(OCCO)c([125I])c2)cc1

# Test system: Spleen
# Assay: Biodistribution in ICR mouse spleen at 5 to 10 uCi, iv after 2 mins
# Type: ADME, organism-based
# Conditions: in vivo
row,Drug uptake [% ID/g],Compound
1,4.4,CN(C)c1ccc(/C=C/c2cnc(OCCO)c([125I])c2)cc1

# Test system: Blood
# Assay: Biodistribution in ICR mouse blood at 5 to 10 uCi, iv after 30 mins
# Type: ADME, organism-based
# Conditions: in vivo, 0.5 h
row,Drug uptake [% ID/g],Compound
1,2.24,CN(C)c1ccc(/C=C/c2cnc(OCCO)c([125I])c2)cc1

# Test system: Blood
# Assay: Biodistribution in ICR mouse blood at 5 to 10 uCi, iv after 1 hr
# Type: ADME, organism-based
# Conditions: in vivo
row,Drug uptake [% ID/g],Compound
1,2.18,CN(C)c1ccc(/C=C/c2cnc(OCCO)c([125I])c2)cc1

# Test system: Liver
# Assay: Biodistribution in ICR mouse liver at 5 to 10 uCi, iv after 1 hr
# Type: ADME, organism-based
# Conditions: in vivo
row,Drug uptake [% ID/g],Compound
1,6.22,CN(C)c1ccc(/C=C/c2cnc(OCCO)c([125I])c2)cc1

# Test system: Zone of skin
# Assay: Biodistribution in ICR mouse skin at 5 to 10 uCi, iv after 2 mins
# Type: ADME, organism-based
# Conditions: in vivo
row,Drug uptake [% ID/g],Compound
1,0.46,CN(C)c1ccc(/C=C/c2cnc(OCCO)c([125I])c2)cc1

# Test system: Zone of skin
# Assay: Biodistribution in ICR mouse skin at 5 to 10 uCi, iv after 30 mins
# Type: ADME, organism-based
# Conditions: in vivo, 0.5 h
row,Drug uptake [% ID/g],Compound
1,1.18,CN(C)c1ccc(/C=C/c2cnc(OCCO)c([125I])c2)cc1

# Test system: Brain
# Assay: Biodistribution in ICR mouse brain at 5 to 10 uCi, iv after 2 hrs
# Type: ADME, organism-based
# Conditions: in vivo
row,Drug uptake [% ID/g],Compound
1,0.46,CN(C)c1ccc(/C=C/c2cnc(OCCO)c([125I])c2)cc1

# Test system: Kidney
# Assay: Biodistribution in ICR mouse kidney at 5 to 10 uCi, iv after 1 hr
# Type: ADME, organism-based
# Conditions: in vivo
row,Drug uptake [% ID/g],Compound
1,2.49,CN(C)c1ccc(/C=C/c2cnc(OCCO)c([125I])c2)cc1

# Test system: Muscle tissue
# Assay: Biodistribution in ICR mouse muscle at 5 to 10 uCi, iv after 2 mins
# Type: ADME, organism-based
# Conditions: in vivo
row,Drug uptake [% ID/g],Compound
1,0.71,CN(C)c1ccc(/C=C/c2cnc(OCCO)c([125I])c2)cc1

# Test system: Blood
# Assay: Biodistribution in ICR mouse blood at 5 to 10 uCi, iv after 2 hrs
# Type: ADME, organism-based
# Conditions: in vivo
row,Drug uptake [% ID/g],Compound
1,1.01,CN(C)c1ccc(/C=C/c2cnc(OCCO)c([125I])c2)cc1

# Test system: Brain
# Assay: Ratio of drug distribution in brain after 2 mins to 30 mins in ICR mouse at 5 to 10 uCi, iv
# Type: ADME, organism-based
# Conditions: in vivo
row,Ratio,Compound
1,1.52,CN(C)c1ccc(/C=C/c2cnc(OCCO)c([125I])c2)cc1

# Test system: Kidney
# Assay: Biodistribution in ICR mouse kidney at 5 to 10 uCi, iv after 30 mins
# Type: ADME, organism-based
# Conditions: in vivo, 0.5 h
row,Drug uptake [% ID/g],Compound
1,4.19,CN(C)c1ccc(/C=C/c2cnc(OCCO)c([125I])c2)cc1

# Test system: Liver
# Assay: Biodistribution in ICR mouse liver at 5 to 10 uCi, iv after 2 hrs
# Type: ADME, organism-based
# Conditions: in vivo
row,Drug uptake [% ID/g],Compound
1,4.87,CN(C)c1ccc(/C=C/c2cnc(OCCO)c([125I])c2)cc1

# Test system: Muscle tissue
# Assay: Biodistribution in ICR mouse muscle at 5 to 10 uCi, iv after 30 mins
# Type: ADME, organism-based
# Conditions: in vivo, 0.5 h
row,Drug uptake [% ID/g],Compound
1,1.05,CN(C)c1ccc(/C=C/c2cnc(OCCO)c([125I])c2)cc1

# Test system: Lung
# Assay: Biodistribution in ICR mouse lung at 5 to 10 uCi, iv after 1 hr
# Type: ADME, organism-based
# Conditions: in vivo
row,Drug uptake [% ID/g],Compound
1,1.98,CN(C)c1ccc(/C=C/c2cnc(OCCO)c([125I])c2)cc1
